Assay [1] has as its target T1, Peptidyl-prolyl cis-trans isomerase FKBP4 (Homo sapiens, UniProt Q02790).
T1 sequence (Q02790 whole entry): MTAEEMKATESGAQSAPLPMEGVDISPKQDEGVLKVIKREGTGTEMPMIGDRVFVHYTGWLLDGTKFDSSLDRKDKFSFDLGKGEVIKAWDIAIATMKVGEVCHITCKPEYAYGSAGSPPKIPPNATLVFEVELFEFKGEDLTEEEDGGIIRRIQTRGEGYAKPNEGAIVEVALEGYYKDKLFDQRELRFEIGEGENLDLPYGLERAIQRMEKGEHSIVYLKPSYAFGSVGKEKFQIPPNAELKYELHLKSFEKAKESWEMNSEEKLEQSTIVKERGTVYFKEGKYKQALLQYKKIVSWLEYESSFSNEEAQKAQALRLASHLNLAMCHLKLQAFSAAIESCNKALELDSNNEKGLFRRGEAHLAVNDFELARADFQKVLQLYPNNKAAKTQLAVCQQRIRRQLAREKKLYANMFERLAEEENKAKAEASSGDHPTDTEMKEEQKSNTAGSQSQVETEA
The experiment in a line: Ki Estimation.

The target of assay [2] is Peptidyl-prolyl cis-trans isomerase FKBP1A (Homo sapiens, UniProt P62942). The experiment in a line: Ki Estimation.

The text below walks through data of BindingDB's records for patent US12065407 (Plex Pharmaceuticals, 2024).

One may read the Ki as the dissociation constant of the complex between target and ligand, obtained from inhibition or displacement.

A value given as a limit tells only on which side of the number the result lay.

Sequence of Peptidyl-prolyl cis-trans isomerase FKBP1A (P62942 whole entry): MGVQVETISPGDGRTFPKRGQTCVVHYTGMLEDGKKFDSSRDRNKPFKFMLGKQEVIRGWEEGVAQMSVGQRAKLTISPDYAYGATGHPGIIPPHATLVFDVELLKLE

Regarding `O=C(N[C@@H](Cc1ccc(Cl)cc1)C(=O)NCCCc1ccccc1)c1nc2ccccc2[nH]1` [US12065407, ID CAP01721], the inhibitory constant (Ki) in assay [1] is greater than 50 µM.

For `C(=C\c1nc2ccccc2n1Cc1ccccc1)/c1ccccc1` [US12065407, ID CAP01548], the Ki was greater than 15 µM in assay [2] and greater than 20 µM in assay [1].

For the compound `O=C(N[C@@H](Cc1ccc(F)cc1)C(=O)NCCCc1ccccc1)c1ccc2ccccc2c1` [US12065407, ID CAP01740], the Ki in assay [2] and in assay [1] was greater than 40 µM throughout.

Turning to `CC(C)Cn1c(/C=C/c2ccccc2)nc2ccccc21` [US12065407, ID CAP01555], the Ki in assay [2] is greater than 15 µM; in assay [1], greater than 20 µM.

Consider `O=C(N[C@@H](Cc1ccc(Cl)cc1)C(=O)NCCCc1ccccc1)c1ccc(F)cc1` [US12065407, ID CAP01719], for which the Ki in assay [2] and in assay [1] was greater than 25 µM in each case.

In the case of `Cn1c(/C=C/c2ccc(Cl)cc2)nc2ccccc21` [US12065407, ID CAP01509], the Ki in assay [2] and in assay [1] was greater than 10 µM in each case.

Take `CCCn1c(/C=C/c2ccccc2)nc2ccccc21` [US12065407, ID CAP01549]: the figures for the Ki in assay [2] and in assay [1] were greater than 20 µM and greater than 25 µM, respectively.

On to `O=C(N[C@@H](Cc1ccc(Cl)cc1)C(=O)NCCCc1ccccc1)C1C2CC3CC(C2)CC1C3` (stereo partly specified) [US12065407, ID CAP01685], for which, in assay [2], the Ki was 32.5 µM.

As to `CCCCn1c(/C=C/c2ccccc2)nc2ccccc21` [US12065407, ID CAP01554], the Ki in assay [2] is greater than 10 µM; in assay [1], greater than 15 µM.

Take `Fc1ccccc1Cn1c(/C=C/c2ccccc2)nc2ccccc21` [US12065407, ID CAP01547]: the Ki in assay [2] is greater than 10 µM; in assay [1], greater than 15 µM.

Consider `O=C(N[C@H](Cc1ccc(Cl)cc1)C(=O)NCCCc1ccccc1)c1ccc2ccccc2c1` [US12065407, ID CAP01691], for which, in assay [2], the Ki was greater than 50 µM.

For the compound `CCC(C)(C)C(=O)N[C@H](C(=O)OCCCc1cccnc1)C1CCCC1` [US12065407, ID Tbl1.1], the Ki in assay [2] and in assay [1] was greater than 25 µM each time.
